Measurements: publication PMC9127750, “Structure-based design of CDC42 effector interaction inhibitors for the treatment of cancer” (Cell reports, 2022)
Where “and” joins values, the source holds several entries; their conditions need not be identical. Equal values may be shown once.

Tested on: WM3248 melanoma cells, 486 antibodies
Test: Reverse phase protein arrays (RPPA)
Type: cell-based, Human
Details: 20, normalized to 0
Description: Pellets were snap frozen in liquid nitrogen and shipped to MD Anderson Cancer Center core RPPA facility for RPPA analysis (Table S5). Three biological replicates for each sample were generated.
Nomenclatures on the RPPA heatmaps: name_of_antibody.species_of_antibody.status_of_antibody. V - antibody validated; C - validation of antibody in progress; Q - antibody nonspecific; E – under evaluation; antibodies raised in M - mouse, G - goat, R - rabbit, or T - rat.

CN(C)c1cccc(Nc2cc(-c3ccccc3)nc(C3CCNCC3)n2)c1 [ARN22089, N1,N1-dimethyl-N3-(6-phenyl-2-(piperidin-4-yl)pyrimidin-4-yl)benzene-1,3-diamine]
HER2.M.V Norm_20 Average (average): 0.995 | HER2_pY1248.R.V Norm_20 Average (average): 1.030 | HER3.R.V Norm_20 Average (average): 0.904 | HER3_pY1289.R.C Norm_20 Average (average): 1.084 | Heregulin.R.V Norm_20 Average (average): 1.046 | eEF2.R.C Norm_20 Average (average): 1.639 | eEF2K.R.V Norm_20 Average (average): 1.409 | eIF4E.R.V Norm_20 Average (average): 1.114 | eIF4G.R.C Norm_20 Average (average): 1.165 | DNMT1.R.V Norm_20 (replicates 1-3): 0.937 and 0.801 | DRP1.R.V Norm_20 (replicates 1-3): 1.019 and 0.894 and 0.979 | DUSP4.R.V Norm_20 (replicates 1-3): 0.537 and 0.626 and 1.006 | DUSP6.R.C Norm_20 (replicates 1-3): 1.405 and 1.064 and 2.195 | DYRK1B.R.C Norm_20 (replicates 1-3): 0.868 and 0.959 and 0.907 | Dvl3.R.V Norm_20 (replicates 1-3): 0.990 and 1.118 and 0.985 | E2F1.R.V Norm_20 (replicates 1-3): 1.446 and 1.251 | E.Cadherin.R.V Norm_20 (replicates 1-3): 0.696 and 0.873 and 0.994 | EGFR.R.V Norm_20 (replicates 1-3): 1.083 and 1.189 and 1.125 | EGFR_pY1068.R.C Norm_20 (replicates 1-3): 0.892 and 0.889 and 0.961 | EGFR_pY1173.R.V Norm_20 (replicates 1-3): 1.079 and 1.019 and 1.046 | EMA.M.C Norm_20 (replicates 1-3): 0.566 and 0.868 and 0.914 | ENY2.M.C Norm_20 (replicates 1-3): 0.866 and 0.944 and 1.047 | ER.a.R.V Norm_20 (replicates 1-3): 0.939 and 0.862 and 1.078 | ER.a_pS118.R.V Norm_20 (replicates 1-3): 1.167 and 1.838 and 0.928 | ERCC1.R.C Norm_20 (replicates 1-3): 0.964 and 0.974 | ERCC5.R.C Norm_20 (replicates 1-3): 1.290 and 0.989 and 1.051 | ERRalpha.R.V Norm_20 (replicates 1-3): 0.831 and 1.056 and 1.002 | EVI1.R.V Norm_20 (replicates 1-3): 0.975 and 0.917 | Enolase.1.R.V Norm_20 (replicates 1-3): 1.030 and 1.152 | Enolase.2.R.V Norm_20 (replicates 1-3): 0.990 and 0.970 and 0.883 | EphA2.R.V Norm_20 (replicates 1-3): 0.706 and 0.773 and 0.765 | EphA2_pS897.R.C Norm_20 (replicates 1-3): 0.536 and 0.635 and 0.720 | EphA2_pY588.R.C Norm_20 (replicates 1-3): 0.930 and 1.018 and 0.973 | Erk5.R.V Norm_20 (replicates 1-3): 0.948 and 0.789 and 1.013 | Ets.1.R.V Norm_20 (replicates 1-3): 1.373 and 1.347 and 1.417 | FABP5.R.C Norm_20 (replicates 1-3): 1.102 and 1.223 and 1.428 | FAK.R.C Norm_20 (replicates 1-3): 0.837 and 0.917 | FAK_pY397.R.V Norm_20 (replicates 1-3): 0.847 and 0.989 and 0.940 | FANCD2.R.V Norm_20 (replicates 1-3): 0.831 and 0.901 and 0.823 | FASN.R.V Norm_20 (replicates 1-3): 0.802 and 0.983 | FGF.basic.R.C Norm_20 (replicates 1-3): 0.939 and 0.836 and 1.240 | FN14.R.C Norm_20 (replicates 1-3): 1.082 and 0.902 and 1.335 | FOXM1.R.V Norm_20 (replicates 1-3): 0.995 and 0.889 and 0.924 | FOXO3.R.V Norm_20 (replicates 1-3): 1.160 and 1.151 and 0.915 | FRS2.alpha_pY196.R.V Norm_20 (replicates 1-3): 0.925 and 1.195 and 1.058 | FTO.R.V Norm_20 (replicates 1-3): 0.992 | Fibronectin.R.V Norm_20 (replicates 1-3): 1.153 and 1.290 and 1.137 | FoxO3a_pS318_S321.R.C Norm_20 (replicates 1-3): 1.105 and 0.940 | G6PD.R.V Norm_20 (replicates 1-3): 0.877 and 1.061 and 0.923 | GATA3.M.V Norm_20 (replicates 1-3): 1.203 and 1.452 and 1.301 | GATA6.R.V Norm_20 (replicates 1-3): 0.945 and 0.991 and 0.928 | GCLC.R.C Norm_20 (replicates 1-3): 0.882 and 0.967 and 1.220 | GCLM.R.V Norm_20 (replicates 1-3): 0.988 and 1.024 and 0.965 | GCN5L2.R.V Norm_20 (replicates 1-3): 0.974 and 0.944 | GGPS1.M.V Norm_20 (replicates 1-3): 0.920 and 0.992 and 1.155 | GRB2.R.V Norm_20 (replicates 1-3): 0.992 and 0.862 and 0.948 | GRB7.R.V Norm_20 (replicates 1-3): 0.909 and 0.898 | GSK.3B.R.C Norm_20 (replicates 1-3): 0.896 and 0.924 | GSK.3a.b.M.V Norm_20 (replicates 1-3): 0.918 and 0.992 | GSK.3a.b_pS21_S9.R.V Norm_20 (replicates 1-3): 1.411 and 1.207 | Gab2.R.V Norm_20 (replicates 1-3): 1.447 and 1.019 | Gli1.R.C Norm_20 (replicates 1-3): 0.898 and 0.922 and 1.028 | Gli3.R.C Norm_20 (replicates 1-3): 1.237 and 1.346 and 1.321 | Glucocorticoid.Receptor.R.V Norm_20 (replicates 1-3): 1.227 and 1.295 and 0.987 | Glutamate.D1.2.R.V Norm_20 (replicates 1-3): 1.198 | Glutaminase.R.C Norm_20 (replicates 1-3): 1.026 and 1.144 and 1.364 | Granzyme.B.R.V Norm_20 (replicates 1-3): 1.284 and 1.028 | Grp75.R.C Norm_20 (replicates 1-3): 1.594 and 1.052 and 0.939 | Gys.R.V Norm_20 (replicates 1-3): 0.807 and 0.941 and 1.104 | Gys_pS641.R.V Norm_20 (replicates 1-3): 0.671 and 0.818 and 1.079 | H2AX_pS139.R.C Norm_20 (replicates 1-3): 1.188 and 2.081 and 1.030 | H2AX_pS140.M.C Norm_20 (replicates 1-3): 1.001 and 1.667 and 1.028 | HER2.M.V Norm_20 (replicates 1-3): 0.977 and 0.952 and 1.056 | HER2_pY1248.R.V Norm_20 (replicates 1-3): 0.902 and 1.119 | HER3.R.V Norm_20 (replicates 1-3): 0.864 and 0.935 and 0.913 | HER3_pY1289.R.C Norm_20 (replicates 1-3): 1.059 and 1.124 | HES1.R.V Norm_20 (replicates 1-3): 1.224 and 0.849 and 1.063 | Heregulin.R.V Norm_20 (replicates 1-3): 1.048 and 1.050 | eEF2.R.C Norm_20 (replicates 1-3): 1.328 and 1.602 and 1.986 | eEF2K.R.V Norm_20 (replicates 1-3): 1.469 and 1.590 and 1.169 | eIF4E.R.V Norm_20 (replicates 1-3): 1.107 and 0.843 and 1.392
